The values below come from ChEMBL document CHEMBL1157141, “Prediction of intestinal absorption and metabolism of pharmacologically active flavones and flavanones” (Bioorg Med Chem, 2008).

Data set [1] in a line: Ratio of permeability from basolateral to apical side over apical to basolateral side in human Caco-2 cells. The format is ADME, cell-based.
Data set [2] in a line: Apparent permeability from basolateral to apical side in human Caco-2 cells assessed as drug recovery. The data set is classed as ADME, cell-based. To be noted: read-out: Activity.
Data set [3] can be described thus: Apparent permeability from basolateral to apical side in human Caco-2 cells. Particulars: read-out: permeability. The format is ADME, cell-based.
Data set [4] can be described thus: Stability in hank's balanced salt solution at 15 uM after 120 mins. The format is physicochemical. To be noted: read-out: Stability.
The nature of data set [5]: Stability in hank's balanced salt solution at 15 uM after 180 mins. Particulars: read-out: Stability. The format is physicochemical.
Data set [6] in a line: Apparent permeability from apical to basolateral side in human Caco-2 cells. The data set is classed as ADME, cell-based. Particulars: read-out: permeability.
The nature of data set [7]: Apparent permeability from apical to basolateral side in human Caco-2 cells assessed as drug recovery. Particulars: read-out: Activity. The data set is classed as ADME, cell-based.
Data set [8] can be described thus: Stability in hank's balanced salt solution at 15 uM after 20 mins. The data set is classed as physicochemical. Particulars: read-out: Stability.
Data set [9] can be described thus: Apparent permeability across PAMPA membrane. Particulars: read-out: permeability. The format is ADME.
Data set [10] in a line: Stability in hank's balanced salt solution at 15 uM after 60 mins. To be noted: read-out: Stability. The format is physicochemical.
Data set [11] is described as follows: Stability in hank's balanced salt solution at 15 uM after 24 hrs. To be noted: read-out: Stability. The data set is classed as physicochemical.
Data set [12] can be described thus: Apparent permeability across PAMPA membrane assessed as drug recovery. The format is ADME. To be noted: read-out: Activity.

For the compound `COc1ccc(-c2cc(=O)c3c(O)cc(O)cc3o2)cc1O` [DIOSMETIN], in data set [1], the efflux ratio was found to be 0.2. In addition, the recovery is 66.8% in data set [2], 59.1% in data set [7] and 82% in [12]. Further, the Papp B→A in data set [3] amounted to 12.4 ×10⁻⁶ cm/s. In [4], the remaining at 2 h, 15 µM turned out to be 101%. Moreover, the remaining at 3 h, 15 µM in [5] was 98.4%. Further, in [6], the Papp A→B was 76.2 ×10⁻⁶ cm/s. Also, the remaining at 20 min, 15 µM in data set [8] is 100%. Further, the Papp in [9] is 76.1 ×10⁻⁶ cm/s. For the same compound, in data set [10], the remaining at 1 h, 15 µM was 96.5%. Also, the remaining at 24 h, 15 µM in [11] was 50.9%.
Take `COc1ccc(-c2cc(=O)c3c(O)cc(O[C@@H]4O[C@H](CO[C@@H]5O[C@@H](C)[C@H](O)[C@@H](O)[C@H]5O)[C@@H](O)[C@H](O)[C@H]4O)cc3o2)cc1O` [DIOSMIN]: the recovery in data set [2] came out at 68.9%; in data set [7] it was 61.9%. In data set [4], the remaining at 2 h, 15 µM worked out at 88.6%. For the same compound, the remaining at 3 h, 15 µM in data set [5] was found to be 78.4%. Also, the remaining at 20 min, 15 µM in data set [8] was determined as 103%. The remaining at 24 h, 15 µM in data set [11] was 0%.
On to `COc1ccc([C@@H]2CC(=O)c3c(O)cc(O)cc3O2)cc1O` [HESPERETIN], for which the efflux ratio in data set [1] is 0.6. The results for the recovery in [2], in data set [7] and in data set [12] were 70.1%, 34.1% and 84%, respectively. Besides, the Papp B→A in [3] came to 27 ×10⁻⁶ cm/s. Also, in data set [4], the remaining at 2 h, 15 µM stood at 91.1%. Moreover, the remaining at 3 h, 15 µM in data set [5] turned out to be 90.8%. Also, the Papp A→B in data set [6] is 47.1 ×10⁻⁶ cm/s. Also, the remaining at 20 min, 15 µM in data set [8] worked out at 94.5%. In addition, the Papp in data set [9] amounted to 35.7 ×10⁻⁶ cm/s. In data set [10], the remaining at 1 h, 15 µM came out at 99.9%. Further, the remaining at 24 h, 15 µM in data set [11] was determined as 80%.
Turning to `COc1ccc([C@@H]2CC(=O)c3c(O)cc(O[C@@H]4O[C@H](CO[C@@H]5O[C@@H](C)[C@H](O)[C@@H](O)[C@H]5O)[C@@H](O)[C@H](O)[C@H]4O)cc3O2)cc1O` [HESPERIDIN], the values for the recovery in [2] and in [7] were 80.2% and 76.9%, respectively. For the same compound, in data set [4], the remaining at 2 h, 15 µM was found to be 87.9%. For the same compound, the remaining at 3 h, 15 µM in [5] was 86.3%. For the same compound, in data set [8], the remaining at 20 min, 15 µM came to 99.8%. The remaining at 24 h, 15 µM in data set [11] is 84.9%.
Regarding `O=C1C[C@@H](c2ccc(O)cc2)Oc2cc(O)cc(O)c21` [NARINGENIN], the recovery was determined as 93% in data set [2], 54.4% in data set [7] and 87% in data set [12]. Also, the Papp B→A in data set [3] came out at 51.4 ×10⁻⁶ cm/s. For the same compound, in data set [4], the remaining at 2 h, 15 µM was 100%. Moreover, the remaining at 3 h, 15 µM in [5] was 91.2%. In addition, the Papp A→B in data set [6] was 37.8 ×10⁻⁶ cm/s. Moreover, the Papp in data set [9] came to 25.7 ×10⁻⁶ cm/s. Besides, the remaining at 1 h, 15 µM in data set [10] amounted to 99.4%. Further, the remaining at 24 h, 15 µM in data set [11] turned out to be 79.9%.
For `C[C@@H]1O[C@@H](O[C@H]2[C@H](Oc3cc(O)c4c(c3)O[C@H](c3ccc(O)cc3)CC4=O)O[C@H](CO)[C@@H](O)[C@@H]2O)[C@H](O)[C@H](O)[C@H]1O` [NARINGIN], the recovery in data set [2] came out at 88.4%; in data set [7] it was 85.7%. Further, in data set [4], the remaining at 2 h, 15 µM stood at 92.2%. The remaining at 3 h, 15 µM in data set [5] came out at 90.4%. The remaining at 20 min, 15 µM in [8] stood at 98.3%. Also, in [11], the remaining at 24 h, 15 µM was 88.5%.
